Results: US6524616B1, “COMPOSITIONS AND METHODS FOR TREATING OR PREVENTING NEURODEGENERATION AND COGNITIVE DECLINE AND DYSFUNCTION ASSOCIATED WITH ALZHEIMER'S DISEASE, AGING, OTHER DEMENTIA RELATED DISORDERS AND ESTROGEN DEFICIENCY RELATED CONDITIONS” (priority 1999, dated 2003)

Legend:
[1] = tested on: patients with Alzheimer's disease; conditions: cited from earlier work; for Effects on Cognitive Function: cognitive decline in Alzheimer's disease
[2] = tested on: BuChE (blood); conditions: read-out: IC50 BuChE, in vitro; cited from earlier work
[3] = tested on: liver; conditions: in vivo; cited from earlier work
[4] = tested on: patients; conditions: Tacrine 100 mg/day; cited from earlier work
[5] = in vivo; cited from earlier work
[6] = tested on: aged ovariectomized rats; test: Radial arm maze test, Example 2 (chronic estrogen-deficient aged rats); type: in vivo
Procedure: Thirty-six retired breeder female rats (8-10 months old) were purchased from Harlan Sprague Dawley, Inc. The rats were housed in separate cages and were initially maintained on a 12:12 hour light/dark cycle with access to Chow diet and water ad libitum. All procedures done on the animals were approved by the Animal Care and Use Committee of Wake Forest University. After bilateral ovariectomy, the rats were fed with a casein/lactalbumin-based control diet for about 12 months (until about 2 years of age). The rats were then evaluated in a 8-arm radial arm maze to determine their baseline working memory. […] The rats were tested in the maze at 1 and 3 months after the initiation of the treatments.
After 3 months of treatment, each of the 3 groups were divided randomly into two subgroups. One subgroup was given Hup A orally (0.3 mg/Kg of body weight) in addition to their control regimen or treatment with SPEs or E2 and the other subgroup received no Hup A. After 3 weeks of Hup A supplementation, working memory was reevaluated.
A pellet of fudge brownie (Little Debbie, Mckee Foods, Collegedale, Tenn.) was placed in each of the 8 food wells located at the end of each arm to serve as a reward. The rats were allowed to explore the maze for 10 min or until all eight rewards were eaten. The training session was terminated when the rats were able to eat all 8 rewards within 10 min.
After the training, the rats were tested once per day 4 consecutive days per week for two weeks. One day prior to the test, and during the first three test days, the food intake was reduced to 25% of the normal 40 g/day food intake. A visit to an arm was recorded if the rat reached three-fourths of the length of the arm. The maze performance was recorded as the number of correct choices in the first 8 visits. A mistake was counted if a rat reentered an arm from which the rat has already eaten the bait. A test session of a rat was terminated when the rat ate all eight rewards or 10 min had elapsed. […]

[7] = tested on: ovariectomized retired breeder female rats; test: Radial arm maze test, Example 1 (10 months of treatment); type: in vivo; conditions: oral in diet, given alone
Procedure: Eight-four retired breeder females (Sprague-Dawley), weighing 300-360 g (8-10 months old), were purchased from Harlan Sprague Dawley, Inc. The rats were housed in separate cages and were initially maintained on a 12:12 hour light/dark cycle with access to Chow diet and water ad libitum. All procedures done on the animals were approved by the Animal Care and Use Committee of Wake Forest University. Upon arrival, the rats were weighed, and then randomized into the 12 treatment groups using a stratified randomization scheme, stratifying by body weight.
Shown in Table 5 below is the 3×4 factorial study design and includes the number of rats that finished the maze tests. […]
After the training, the rats were tested twice per day (in the morning and afternoon) 4 consecutive days per week for two weeks. […] A visit to an arm was recorded if the rat reached three-fourths of the length of the arm. The maze performance was recorded as the number of correct choices in the first 8 visits. A mistake was counted if a rat reentered an arm from which the rat has already eaten the bait. […]
All data were analyzed using BMDP Statistical Software, version 7.0 (Los Angeles, Calif.). Uterine weights expressed as a percentage of body weight and body weight violated the assumption of equal variances, and were not normally distributed. […] Body weight, uterine weight, and maze data were analyzed by 2-way ANOVA. […]

For `Nc1ccncc1` [4-aminopyridine], the “Effects on Cognitive Function” value [1] is listed as “Unchanged/Slight Improvement”.
In the case of `Nc1c2c(nc3ccccc13)CCCC2` [Tacrine], the IC50 [2] is given as […], the liver toxicity [3] is given as “toxic to the liver” and the “Effects on Cognitive Function” value [1] is given as “Unchanged to Significant Improvement”. The “improving symptoms of Alzheimer's disease” value ([1]; in vivo) was “mildly effective”, the “Abdominal Cramps” value [4] was 38 Per Cent of Patients and the Diarrhea [4] was 23 Per Cent of Patients. The Dizziness [4] was 12 Per Cent of Patients, the “Excessive Sweating” value [4] was 4 Per Cent of Patients and the Nausea [4] was 25 Per Cent of Patients. For the same compound, the Polyuria [4] was 25 Per Cent of Patients, the Ptyalsim [4] was 10 Per Cent of Patients and the Vomitin [4] was 15 Per Cent of Patients.
In the case of `O=C1CCCN1CC#CCN1CCCC1` [Oxotremorine], the “Effects on Cognitive Function” value [1] is given as “Unchanged”.
In the case of `CN1CCCC1c1cccnc1` (centres unmarked) [Nicotine], the “Effects on Cognitive Function” value [1] is given as “Slight Improvement”.
In the case of `CC(C[N+](C)(C)C)OC(N)=O` (centres unmarked) [Bethanecol], the “Effects on Cognitive Function” value [1] is given as “Unchanged/Slight Improvement”.
In the case of Lecithin, the “Effects on Cognitive Function” value [1] is given as “Unchanged/Slight Improvement”.
In the case of `CNC(=O)Oc1ccc2c(c1)[C@]1(C)CCN(C)[C@@H]1N2C` [Physostigmine], the half-life [5] is listed as “short half-life”.
In the case of Phosphatidylserine, the “Effects on Cognitive Function” value [1] is listed as “Slight Improvement”.
For `C/C=C1\[C@H]2C=C(C)C[C@]1(N)c1ccc(=O)[nH]c1C2` [Huperzine A, (5R, 9R, 11E)-5-amino-11-ethylidene-5,6,9,10-tetrahydro-7-methyl-5,9-methanocycloocta(b)pyridin2(1H)-one], the “cognitive function (proportion of animals with improved working memory)” value ([6]; Hup A 0.3 mg/Kg orally for 3 weeks added to E2 treatment) is listed as “slightly improved”, the “cognitive function (proportion of animals with improved working memory)” value ([6]; Hup A 0.3 mg/Kg orally for 3 weeks added to SPE treatment) is listed as “considerably improved” and the “Effects on Cognitive Function” value [1] is listed as “Significant Improvement”.
For `COC(=O)C1=CCCN(C)C1` [Arecoline], the “Effects on Cognitive Function” value [1] is listed as “Unchanged/Slight Improvement”.
In the case of `CC[C@@H]1C(=O)OC[C@@H]1Cc1cncn1C` [Pilocarpine], the “Effects on Cognitive Function” value [1] is given as “Unchanged”.
In the case of `CC12CCC3c4ccc(O)cc4CCC3C1CCC2O` (stereo not drawn) [estradiol, 17-β estradiol], the “maze performance (working memory) versus Ctl group” value ([6]; at both 1 and 3 months of treatment, after 12 months of estrogen-deficiency) is reported as “significantly better” and the “performance of the radial arm maze tests” value [7] is reported as “dosedependent improvement”.
